Tests used:
[1] = biological target: T1, Solute carrier family 22 member 12 (Homo sapiens, UniProt Q96S37); assay: Inhibition of URAT1 in human RPTEC assessed as inhibition of [14C]uric acid uptake preincubated for 15 mins followed by [14C]uric acid addition and incubated under shaking condition for 2 hrs by scintillation counter method; format: tissue-based
T1 sequence (Q96S37 whole entry): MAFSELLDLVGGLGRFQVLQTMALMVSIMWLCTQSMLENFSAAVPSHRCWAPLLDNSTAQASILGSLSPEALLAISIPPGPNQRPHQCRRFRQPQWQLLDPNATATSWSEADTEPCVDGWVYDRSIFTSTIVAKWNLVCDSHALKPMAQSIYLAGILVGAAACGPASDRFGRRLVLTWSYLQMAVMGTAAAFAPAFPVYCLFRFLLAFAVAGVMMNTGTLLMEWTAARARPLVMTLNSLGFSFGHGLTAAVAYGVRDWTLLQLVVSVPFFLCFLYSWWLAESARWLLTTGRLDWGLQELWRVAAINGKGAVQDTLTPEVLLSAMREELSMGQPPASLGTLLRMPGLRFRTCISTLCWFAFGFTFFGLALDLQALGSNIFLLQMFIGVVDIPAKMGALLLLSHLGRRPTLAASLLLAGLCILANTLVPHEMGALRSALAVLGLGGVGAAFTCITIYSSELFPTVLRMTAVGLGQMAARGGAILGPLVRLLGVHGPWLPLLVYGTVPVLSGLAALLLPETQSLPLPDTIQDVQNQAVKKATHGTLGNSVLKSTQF

[2] = biological target: T1, Solute carrier family 22 member 12; assay: Inhibition of URAT1 in human RPTEC assessed as inhibition of [14C]uric acid uptake at 10 uM preincubated for 15 mins followed by [14C]uric acid addition and incubated under shaking condition for 2 hrs by scintillation counter method; format: tissue-based
[3] = Drug excretion rate in rat urine at 3 mg/kg, po measured up to 4 hrs by HPLC analysis; format: ADME, organism-based; conditions: read-out: Drug excretion
[4] = Cmax in rat at 3 mg/kg, po by HPLC analysis; format: ADME, organism-based; parameters: route oral, dose 3 mg/kg; conditions: in vivo
[5] = test system: mitochondrial respiration; assay: Hepatotoxicity in rat liver mitochondria assessed as inhibition of mitochondrial respiration by measuring mitochondrial respiratory control ratio of oxygen consumption in presence of substrate and ADP to rate after complete conversion of ADP to ATP at 100 uM by Clark-type oxygen electrode method; format: toxicity
[6] = test system: mitochondrial respiration; assay: Hepatotoxicity in rat liver mitochondria assessed as inhibition of mitochondrial respiration by measuring mitochondrial respiratory control ratio of oxygen consumption in presence of substrate and ADP to rate after complete conversion of ADP to ATP by Clark-type oxygen electrode method; format: toxicity
[7] = AUC (0 to 24 hrs) in Cebus monkey at 30 mg/kg, po; format: ADME, organism-based; parameters: route oral, dose 30 mg/kg, time <=24; conditions: in vivo
[8] = Uricosuric effect in Cebus monkey assessed as fractional plasma urate excretion at 30 mg/kg, po measured up to 4 hrs; format: functional; conditions: time hrs <=4
[9] = biological target: T1, Solute carrier family 22 member 12; assay: Inhibition of human URAT1 expressed in Xenopus laevis oocytes mediated [14C]uric acid uptake at 0.1 uM measured after 60 mins by liquid scintillation counter method relative to control; format: cell-based; conditions: 1 h
[10] = Acid dissociation constant, pKa of the compound; format: physicochemical
[11] = Cmax in rat at 0.3 mg/kg, po; format: ADME, organism-based; parameters: route oral, dose 0.3 mg/kg; conditions: in vivo
[12] = biological target: T1, Solute carrier family 22 member 12; assay: Inhibition of human URAT1 expressed in Xenopus laevis oocytes assessed as inhibition of [14C]uric acid uptake measured after 60 mins by liquid scintillation counter method
[13] = Drug excretion in human urine assessed as excretion rate of sulfate metabolite of phenols measured for 72 hrs by mass balance test; format: ADME
[14] = Drug excretion in human urine assessed as excretion rate of glucuronide metabolite of phenols measured for 72 hrs by mass balance test; format: ADME, tissue-based
[15] = AUC (0 to infinity) in rat at 0.3 mg/kg, iv; format: ADME, organism-based; parameters: time infinity, route intravenous, dose 0.3 mg/kg; conditions: in vivo
[16] = AUC (0 to 24 hrs) in Cebus monkey at 5 mg/kg, po; format: ADME, organism-based; parameters: route oral, dose 5 mg/kg, time <=24; conditions: in vivo
[17] = Oral bioavailability in rat at 0.3 mg/kg; format: ADME, organism-based; conditions: in vivo
[18] = Uricosuric effect in Cebus monkey assessed as fractional plasma urate excretion at 5 mg/kg, po measured up to 4 hrs; format: functional; conditions: time hrs <=4
[19] = Cmax in rat at 0.3 mg/kg, iv; format: ADME, organism-based; parameters: route intravenous, dose 0.3 mg/kg; conditions: in vivo
[20] = AUC (0 to infinity) in rat at 0.3 mg/kg, po; format: ADME, organism-based; parameters: time infinity, route oral, dose 0.3 mg/kg; conditions: in vivo
[21] = biological target: Cytochrome P450 2C9 (Homo sapiens, UniProt P11712); assay: Inhibition of CYP2C9 (unknown origin); format: ADME
Chain of Cytochrome P450 2C9 (P11712 whole entry): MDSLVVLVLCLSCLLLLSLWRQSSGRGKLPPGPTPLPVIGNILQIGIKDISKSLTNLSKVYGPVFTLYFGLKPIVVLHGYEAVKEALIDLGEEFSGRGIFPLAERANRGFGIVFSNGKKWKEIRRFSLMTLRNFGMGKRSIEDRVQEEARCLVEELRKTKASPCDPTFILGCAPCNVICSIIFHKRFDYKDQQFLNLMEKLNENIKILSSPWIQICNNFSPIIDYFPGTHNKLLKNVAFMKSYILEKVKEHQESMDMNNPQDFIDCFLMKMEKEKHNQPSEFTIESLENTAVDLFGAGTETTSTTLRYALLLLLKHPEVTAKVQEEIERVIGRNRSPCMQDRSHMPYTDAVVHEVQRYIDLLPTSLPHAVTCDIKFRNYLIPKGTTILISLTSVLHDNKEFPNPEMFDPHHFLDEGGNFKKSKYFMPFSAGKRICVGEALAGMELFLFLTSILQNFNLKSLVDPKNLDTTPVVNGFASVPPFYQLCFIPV

Row | SMILES | IC50 [1] | inhibition at 10 µM [2] | dose excreted at 4 h [3] | Cmax [4] | inhibition at 100 µM [5] | IC50 [6] | further results
1 | N#Cc1cc(C(=O)N2CCc3ccccc32)ccc1O | 2.5 µM | 67.5% | 5.9% | 890 ng/mL | 43% | – | –
2 | O=C(c1cc(F)c(O)c(Cl)c1)N1CS(=O)(=O)c2ccccc21 | 33.9 µM | – | 4.3% | 7700 ng/mL | – | 63 µM | –
3 | CCc1oc2ccccc2c1C(=O)c1cc(Br)c(O)c(Br)c1 [BENZBROMARONE] | – | 51% | 0% | 4420 ng/mL | – | 3.1 µM | AUC(0-t) [7]: 95200 ng·h/mL; Activity [8]: 11.5%; inhibition at 0.1 µM [9]: 37%; pKa [10]: 5.17
4 | O=C(c1cc(Cl)c(O)c(Cl)c1)N1CS(=O)(=O)c2ccccc21 [DOTINURAD] | 6.8 µM | 81% | 1.1% | 9140 ng/mL | – | 27 µM | Cmax [11]: 1090 ng/mL; IC50 [12]: 0.0372 µM; Drug excretion [13]: 20%; Drug excretion [14]: 44.3%; AUC(0-inf) [15]: 6620 ng·h/mL; inhibition at 0.1 µM [9]: 78%; AUC(0-t) [16]: 109000 ng·h/mL; bioavailability [17]: 86.8%; Activity [18]: 16.5%; Cmax [19]: 2400 ng/mL; AUC(0-inf) [20]: 5740 ng·h/mL
5 | N#Cc1cc(C(=O)N2CCc3ccccc32)cc(C#N)c1O | 83.9 µM | 26.3% | – | – | 47% | – | –
6 | CSc1cc(C(=O)N2CS(=O)(=O)c3ccccc32)cc(C#N)c1O | 7.1 µM | 57% | 9.4% | 1080 ng/mL | 21% | – | inhibition at 0.1 µM [9]: 44%
7 | N#Cc1cc(C(=O)N2CCc3ccccc32)cc(C(F)(F)F)c1O | > 100 µM | 30% | – | – | 40% | – | –
8 | N#Cc1cc(C(=O)N2CS(=O)(=O)c3ccccc32)cc(Cl)c1O | > 100 µM | 25% | 23% | 1350 ng/mL | 20% | – | inhibition at 0.1 µM [9]: 29%
9 | O=C(c1cc(Cl)c(O)c(C(F)(F)F)c1)N1CS(=O)(=O)c2ccccc21 | 2.6 µM | – | 0.1% | 6410 ng/mL | – | 18 µM | –
10 | N#Cc1cc(C(=O)N2CCc3ccccc32)cc(C2CC2)c1O | 8.8 µM | 67.8% | 0.35% | 1360 ng/mL | – | 24 µM | –
11 | CSc1cc(C(=O)N2CS(=O)(=O)c3ccccc32)cc(Cl)c1O | 5.7 µM | – | 0.2% | 4640 ng/mL | – | 59 µM | –
12 | COc1cc(C(=O)N2CS(=O)(=O)c3ccccc32)cc(C(F)(F)F)c1O | 17.8 µM | – | 0% | 3990 ng/mL | 47% | – | –
13 | CC(C)(C)c1cc(C(=O)N2CCc3ccccc32)cc(C#N)c1O | 31.6 µM | 32.4% | – | – | – | 6.6 µM | –
14 | N#Cc1cc(C(=O)N2CCc3ccccc32)cc(Cl)c1O | 14.7 µM | 38.2% | – | – | – | 31 µM | –
15 | N#Cc1cc(C(=O)N2CS(=O)(=O)c3ccccc32)cc(C2CC2)c1O | 19.2 µM | 42% | 0.6% | 3810 ng/mL | – | 59 µM | inhibition at 0.1 µM [9]: 30%; IC50 [21]: 57 µM
16 | N#Cc1cc(C(=O)N2CS(=O)(=O)c3ccccc32)cc(C(F)(F)F)c1O | > 100 µM | – | – | – | 12% | – | –
17 | N#Cc1cc(C(=O)N2CCc3ccccc32)cc(I)c1O | 5.3 µM | 65.1% | 0.02% | 5950 ng/mL | – | 53 µM | –
18 | CCc1cc(C(=O)N2CS(=O)(=O)c3ccccc32)cc(C#N)c1O | > 100 µM | 32% | 1.7% | 4240 ng/mL | – | 37 µM | inhibition at 0.1 µM [9]: 36%
19 | CSc1cc(C(=O)N2CCc3ccccc32)cc(C#N)c1O | > 100 µM | 24.2% | – | – | – | 40 µM | –
20 | O=c1[nH]c(=O)c2[nH]c(=O)[nH]c2[nH]1 [URIC ACID] | – | – | – | – | – | – | pKa [10]: 5.75
21 | Cc1c(C)n(C(=O)c2ccc(O)c(C#N)c2)c2ccccc12 | 10.8 µM | 52.1% | – | – | – | 3.6 µM | –
22 | CC(C)c1cc(C(=O)N2CS(=O)(=O)c3ccccc32)cc(C#N)c1O | 83.3 µM | – | 0.1% | 4460 ng/mL | – | 12 µM | –
23 | COc1cc(C(=O)N2CS(=O)(=O)c3ccccc32)cc(Cl)c1O | 4.3 µM | – | 0.1% | 1060 ng/mL | 49% | – | –
24 | N#Cc1cc(C(=O)N2CSc3ccccc32)cc(C(F)(F)F)c1O | 13.1 µM | 49% | 0.1% | 3150 ng/mL | – | 55 µM | inhibition at 0.1 µM [9]: 71%
25 | C#Cc1cc(C(=O)N2CS(=O)(=O)c3ccccc32)cc(C#N)c1O | 3.2 µM | – | 12.4% | 1580 ng/mL | 13% | – | –
26 | COc1cc(C(=O)N2CCc3ccccc32)cc(C#N)c1O | > 100 µM | 21.7% | – | – | -10% | – | –

Source: ChEMBL document CHEMBL4725450 (ACS Med Chem Lett, 2020)
